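1) Cells in 96-well plates. 2) Compound, 48 h, 5 concentrations. 3) Linear interpolation between surrounding doses. 4) Unreached endpoint = highest concentration. TGI: concentration producing complete growth inhibition.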
Legend:
Assay in all cases: NCI-60 cell line screen, 48 h
[1] = system: SF-539 CNS
[2] = system: HT29 colon
[3] = system: HOP-92 NSCLC
[4] = system: DLD-1 colon
[5] = system: HCT-15 colon
[6] = system: CAKI-1 renal
[7] = system: ACHN renal
[8] = system: COLO 205 colon
[9] = system: HOP-62 NSCLC
[10] = system: 786-0 renal
[11] = system: UO-31 renal
[12] = system: SN12C renal
[13] = system: SF-268 CNS
[14] = system: SK-OV-3 ovarian
[15] = system: NCI-H522 lung
[16] = system: MOLT-4 leukemia
[17] = system: A549 NSCLC
[18] = system: M14 melanoma
[19] = system: A498 renal
[20] = system: KM20L2 colon
[21] = system: K-562 leukemia
[22] = system: LXFL 529 NSCLC
[23] = system: OVCAR-5 ovarian
[24] = system: XF 498 CNS
[25] = system: NCI-H23 lung
[26] = system: M19-MEL melanoma
[27] = system: CCRF-CEM leukemia
[28] = system: NCI-H460 lung
[29] = system: SNB-75 CNS
[30] = system: UACC-257 melanoma
[31] = system: SK-MEL-5 melanoma
[32] = system: KM12 colon
[33] = system: OVCAR-4 ovarian
[34] = system: HCT-116 colon
[35] = system: RPMI-8226 leukemia
[36] = system: SW-620 colon
[37] = system: DMS 114 small cell lung
[38] = system: SF-295 CNS
[39] = system: SR leukemia
[40] = system: U251 CNS
[41] = system: EKVX NSCLC
[42] = system: SK-MEL-2 melanoma
[43] = system: MALME-3M melanoma
[44] = system: OVCAR-3 ovarian
[45] = system: SK-MEL-28 melanoma
[46] = system: HOP-18 NSCLC
[47] = system: OVCAR-8 ovarian
[48] = system: HCC-2998 colon
[49] = system: SNB-78 CNS
[50] = system: IGROV1 ovarian
[51] = system: RXF-631 renal
[52] = system: TK-10 renal
[53] = system: SNB-19 CNS
[54] = system: UACC-62 melanoma
[55] = system: HL-60(TB) leukemia
[56] = system: NCI-H226 lung
[57] = system: DMS 273 small cell lung
[58] = system: LOX IMVI melanoma
[59] = system: RXF 393 renal

## Cc1ccc(NC(=O)CCc2nc(N)nc(N)c2-c2ccccc2)cc1C
[1]
  TGI: > 100 µM
[2]
  TGI: > 100 µM
[3]
  TGI: > 100 µM
[4]
  TGI: > 100 µM
[5]
  TGI: > 100 µM
[6]
  TGI: > 100 µM
[7]
  TGI: > 100 µM
[8]
  TGI: > 100 µM
[9]
  TGI: > 100 µM
[10]
  TGI: > 100 µM
[11]
  TGI: > 100 µM
[12]
  TGI: > 100 µM
[13]
  TGI: > 100 µM
[14]
  TGI: > 100 µM
[15]
  TGI: > 100 µM
[16]
  TGI: > 100 µM
[17]
  TGI: > 100 µM
[18]
  TGI: > 100 µM
[19]
  TGI: > 100 µM
[20]
  TGI: > 100 µM
[21]
  TGI: > 100 µM
[22]
  TGI: > 100 µM
[23]
  TGI: > 100 µM
[24]
  TGI: > 100 µM
[25]
  TGI: > 100 µM
[26]
  TGI: > 100 µM
[27]
  TGI: > 100 µM
[28]
  TGI: > 100 µM
[29]
  TGI: > 100 µM
[30]
  TGI: > 100 µM
[31]
  TGI: > 100 µM
[32]
  TGI: > 100 µM
[33]
  TGI: > 100 µM
[34]
  TGI: > 100 µM
[35]
  TGI: > 100 µM
[36]
  TGI: > 100 µM
[37]
  TGI: > 100 µM
[38]
  TGI: > 100 µM
[39]
  TGI: > 100 µM
[40]
  TGI: > 100 µM
[41]
  TGI: > 100 µM
[42]
  TGI: > 100 µM
[43]
  TGI: > 100 µM
[44]
  TGI: > 100 µM
[45]
  TGI: > 100 µM
[46]
  TGI: > 100 µM
[47]
  TGI: > 100 µM
[48]
  TGI: > 100 µM
[49]
  TGI: > 100 µM
[50]
  TGI: > 100 µM
[51]
  TGI: > 100 µM
[52]
  TGI: > 100 µM
[53]
  TGI: > 100 µM
[54]
  TGI: > 100 µM
[55]
  TGI: > 100 µM
[56]
  TGI: > 100 µM
[57]
  TGI: > 100 µM

## CC1/C=C/[C@@]2(C)CCC(C(C)(C)O)C2C(O)C[C@](C)(O)/C=C/C1 (stereo partly drawn)
[1]
  TGI: > 100 µM
[2]
  TGI: > 100 µM
[3]
  TGI: > 100 µM
[4]
  TGI: > 100 µM
[5]
  TGI: > 100 µM
[6]
  TGI: > 100 µM
[7]
  TGI: > 100 µM
[8]
  TGI: > 100 µM
[9]
  TGI: > 100 µM
[10]
  TGI: > 100 µM
[11]
  TGI: > 100 µM
[12]
  TGI: > 100 µM
[13]
  TGI: > 100 µM
[14]
  TGI: > 100 µM
[58]
  TGI: > 100 µM
[16]
  TGI: > 100 µM
[17]
  TGI: > 100 µM
[18]
  TGI: > 100 µM
[19]
  TGI: > 100 µM
[20]
  TGI: > 100 µM
[21]
  TGI: > 100 µM
[59]
  TGI: > 100 µM
[22]
  TGI: > 100 µM
[23]
  TGI: > 100 µM
[24]
  TGI: > 100 µM
[25]
  TGI: > 100 µM
[27]
  TGI: > 100 µM
[28]
  TGI: > 100 µM
[29]
  TGI: > 100 µM
[30]
  TGI: > 100 µM
[31]
  TGI: > 100 µM
[32]
  TGI: > 100 µM
[33]
  TGI: > 100 µM
[34]
  TGI: > 100 µM
[35]
  TGI: > 100 µM
[36]
  TGI: > 100 µM
[37]
  TGI: > 100 µM
[38]
  TGI: > 100 µM
[39]
  TGI: > 100 µM
[40]
  TGI: > 100 µM
[41]
  TGI: > 100 µM
[42]
  TGI: > 100 µM
[43]
  TGI: > 100 µM
[44]
  TGI: > 100 µM
[45]
  TGI: > 100 µM
[46]
  TGI: > 100 µM
[47]
  TGI: > 100 µM
[48]
  TGI: > 100 µM
[49]
  TGI: > 100 µM
[50]
  TGI: > 100 µM
[52]
  TGI: > 100 µM
[53]
  TGI: > 100 µM
[54]
  TGI: > 100 µM
[55]
  TGI: > 100 µM
[56]
  TGI: 52 µM
[57]
  TGI: > 100 µM

— PubChem BioAssay (NCI)
